Laboratory results: patent US9260382B2, “Methods of reducing virulence in bacteria” (priority 2010, dated 2016)

Key:
[1] = system: hrpA promoter (T3SS); experiment: hrpA promoter activity assay in DC3000 (GFP, flow cytometry); type: cell-based, Pseudomonas syringae pv. tomato DC3000; details: DC3000 (phrpA)
Method: Expression of hrpA was analyzed using a FACS Calibur flow cytometer as previously described (BD Biosciences, CA) (Peng et al. 2006). Wild-type DC3000 carrying the promoter-probe phrpA or pPROBE-NT (vector control) was grown in KB broth overnight and transferred to HIM or HIM supplemented with different compounds as described (Li et al. 2009). The promoter activity of hrpA in DC3000 was monitored by measuring GFP intensity using flow cytometry.
(§1) To determine the maximum concentration of TCA that will inhibit hrpA promoter activity without affecting bacterial growth, DC3000 carrying phrpA was cultured in HIM and HIM supplemented with 25 μM, 50 μM, 100 μM, 250 μM, or 500 μM of TCA. Promoter activity was measured at 6 h and 9 h as mentioned above using flow cytometry. Bacterial growth was determined by withdrawing samples of each culture and spot-plating serial dilutions onto King's B agar (King et al. 1954) in tandem with promoter activity assays. Colonies were counted after 48 h of incubation at 28° C.

[2] = system: Pseudomonas syringae pv. tomato DC3000; experiment: Virulence assay in tomato plants (bacterial speck); type: in vivo; details: five days post-inoculation; for bacterial speck lesions on tomato plants, in words: DC3000 with 250 μM
Method: Virulence assays were performed in 4-5 week old tomato plants. Bacterial cell suspensions were adjusted to 6×10^5 cells/ml in dH2O with 0.02% Silwet L-77 (Lehle Seeds, Round Rock, Tex.). Lycopersicon esculentum cv. Moneymaker plants were dip-inoculated into negative control solution (dH2O with 0.02% Silwet L-77 and DMSO), positive control solution (DC3000 in dH2O with 0.02% Silwet L-77 and DMSO), or with a chemical treatment solution (DC3000 in dH2O with 0.02% Silwet L-77 and 250 μM TCA). Leaves were air-dried and plants were covered with a plastic dome and returned to the growth chamber. Plants were scored for disease symptoms using a modified scoring system (Kozik and Nowakowska 2010) five days post-inoculation. Lesions of bacterial speck on tomato were counted and the plants were scored using the following DSI scale: 0=no lesions per plant, 1=1-10 lesions, 2=11-20 lesions, 3=21-40 lesions, 4=>40 lesions.
The effects of TCA on virulence in tomato plants were examined. Lycopersicon esculentum cv. Moneymaker plants were dip-inoculated with a negative control treatment (dH2O with 0.02% Silwet L-77 and DMSO), a positive control treatment (DC3000 in dH2O with 0.02% Silwet L-77 and DMSO), or with a chemical treatment (DC3000 in dH2O with 0.02% Silwet L-77 and 250 μM TCA) as described in the methods. The lesions of bacterial speck on leaves per plant were counted and plants were classified with a disease severity index (DSI) as described in the methods. […] Plants treated with DC3000 were all scored with a DSI of four (FIG. 36B).

[3] = system: Pseudomonas syringae pv. tomato DC3000 (HR elicitation); experiment: Hypersensitive response (HR) assay in tobacco leaves; type: in vivo; details: Nicotiana tabacum cv. Xanthi, 18 hours post-infiltration
Method: Bacterial cells from overnight cultures grown in KB broth were resuspended in sterile dH2O. Cell suspensions were mixed with chemicals and allowed to sit for 30 minutes before plant inoculation. Nicotiana tabacum cv. Xanthi plants were used for HR assays. Tobacco leaves were pressure infiltrated by use of a needless syringe (Fu et al. 2006) with 1×10^8 cells/ml and 25 μM, 50 μM, 100 μM, 250 μM, or 500 μM TCA. Plants were photographed and assessed for macroscopic tissue collapse indicative of HR 18 h post-inoculation.
In DC3000, mutations in genes which encode components of the T3SS result in the inability to elicit HR in non-hosts (Collmer et al. 2000). Since TCA represses expression of hrpA (a major component of the T3SS) in vitro, the ability of TCA to suppress HR in planta was examined. DC3000 (OD600=0.1) with 25 μM, 50 μM, 100 μM, 250 μM, or 500 μM of TCA in DMSO was injected into leaves of tobacco (Nicotiana tabacum cv. Xanthi). Concentrations of DMSO which correspond to similar amounts of TCA were also injected into the tobacco plants as negative controls. Tobacco leaves were assessed for HR symptoms 18 hours post-infiltration. No visible signs of tissue damage or HR were observed when DMSO or TCA was separately infiltrated into the tobacco leaves (data not shown). […] This effect is most likely due to lack of a functional T3SS.

[4] = system: Pseudomonas syringae pv. tomato DC3000; experiment: DC3000 bacterial growth, colony counts; type: cell-based; details: 6 h and 9 h
Method: as §1

[5] = system: HrpN protein; experiment: HrpN protein expression (FIG. 15); type: cell-based, Dickeya dadantii 3937; details: MM supplemented with 0.1 mM (FIG. 15)
Excerpt: To further elucidate whether T3SS gene expression is mainly regulated through the HrpX/Y-HrpS-HrpL regulatory pathway, the expression of hrpA and hrpN in wild-type Ech3937 and hrpX (WPP67), hrpY (WPP92), hrpS (WPP90), and hrpL (WPP96) mutants in MM were examined. […] Similar expression of hrpA and hrpN was observed among WPP67, WPP92, WPP90 and WPP96 carrying phrpA and phrpN grown in MM and MM supplemented with PCA. […] Since PCA represses the expression of several T3SS genes such as hrpN, the effect of PCA on protein production of HrpN was further examined.

[6] = system: hrpL mRNA; experiment: qRT-PCR relative mRNA level of hrpL; type: cell-based, Dickeya dadantii 3937; details: MM supplemented with 0.1 mM
Method: (§2) Bacterial strains were grown in MM. Total RNA from the bacterial cells was isolated by using the TRI reagent method (Sigma, Mo.) and treated with Turbo DNA-free DNase kits (Ambion, Tex.) as described (Peng et al., 2006). An iScript cDNA Synthesis Kit (Bio-Rad, CA) was used to synthesize cDNA from 0.5 μg of treated total RNA. The Real Master Mix (Eppendorf, Westbury, N.Y.) was used for qRT-PCR reaction to quantify the cDNA level of target genes in different samples. The rplU was used as the endogenous control for data analysis. qRT-PCR data were analyzed using Relative Expression Software Tool as described (Pfaffl, M. W., Horgan, G. W., and Dempfle, L. (2002) Relative expression software tool (REST) for group-wise comparison and statistical analysis of relative expression results in real-time PCR. Nucleic Acids Res 30:e36.).

[7] = system: hrpN mRNA; experiment: qRT-PCR relative mRNA level of hrpN; type: cell-based, Dickeya dadantii 3937; details: 0.1 mM in MM
Method: as §2

[8] = system: gacA mRNA; experiment: qRT-PCR relative mRNA level of gacA; type: cell-based, Dickeya dadantii 3937; details: 0.1 mM in MM
Method: as §2

O=C(O)/C=C/c1ccccc1 [Compound 001, trans-cinnamic acid]
effect on hrpA promoter activity, in words ([1]; HIM + 25 μM or 50 μM): less substantial effect
reduction in hrpA promoter activity ([1]; HIM + 100 μM): 3 fold
effect on hrpA promoter activity, in words ([1]; HIM + 250 μM and 500 μM): almost complete repression of hrpA promoter activity
disease severity index (DSI) ([2]; tomato Lycopersicon esculentum cv. Moneymaker dip-inoculated with DC3000 and 250 μM): zero
bacterial speck lesions on tomato plants, in words [2]: No lesions of bacterial speck were observed
bacterial speck lesions on tomato plants, in words ([2]; listed as TCA): no bacterial speck lesions were observed
elicitation of HR by DC3000 in tobacco leaves, in words ([3]; infiltrated with 100 μM): unable to completely block HR
elicitation of HR by DC3000 in tobacco leaves, in words ([3]; infiltrated with 250 μM): completely suppressed
colony counts of DC3000 vs control culture, in words ([4]; HIM + 500 μM): slightly lower
effect on growth of DC3000, in words ([4]; HIM, at or below concentrations of 250 μM): does not significantly inhibit nor enhance growth

O=C(O)/C=C/c1ccc(O)cc1 [Compound 004, para-coumaric acid]
HrpN protein amount compared with MM alone, in words [5]: a lower amount of HrpN
hrpL mRNA relative expression ratio (MM alone normalized to 1) [6]: 0.039
hrpN mRNA compared with MM alone, in words [7]: significantly lower amount of mRNA

O=C(O)/C=C/c1ccccc1O [Compound 006, Ortho-coumaric acid]
gacA mRNA compared with MM alone, in words [8]: No significant difference
